Results from PMC12216609, “Inhibitors of eIF1A-ribosome interaction unveil uORF-dependent regulation of translation initiation and antitumor and antiviral effects” (The EMBO Journal, 2025).
“And” between values parts separate entries of the source, which are not always exact repeats. Identical values can stand only once. Like-named read-outs stand apart in the source and are kept apart here.

Legend:
NSP1 = NSP1 (Severe acute respiratory syndrome coronavirus 2, UniProt P0DTD1)
eIF1A without CTT = target: T1, eIF1A without CTT (Homo sapiens, UniProt P47813); assay type: binding; conditions: for fluorescence ratio, eIF1A Δ CTT: background-corrected, relative to DMSO or lowest 1Ai concentration, replicate columns
T1 construct: His-bdSUMO (cleaved yes); made in house; host or cells: E. coli (BL-21)

eIF1A-RPS10 interaction = target: T2, eIF1A-RPS10 interaction (Homo sapiens, UniProt P46783+P47813); assay: Split-Renilla luciferase eIF1A-RPS10 interaction screen, dose-response; assay type: biochemical; conditions: summary table; read-out: IC50 concentration (µM), IC50 screen
T2 construct: made in house; host or cells: E. coli BL21 (PRSFduet); unpurified lysate supernatant
Outline: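 Expression at 16 °C overnight after 0.5 mM IPTG induction; sonication and centrifugation in TKE buffer; lysate supernatant checked for Renilla activity; compound testing against the eIF1A–RPS10 split-luciferase pair, including fragment-only controls.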

eIF1A without NTT = target: T3, eIF1A without NTT (Homo sapiens, UniProt P47813); assay: Fluorescence binding assay with NTT-truncated eIF1A; conditions: for fluorescence ratio, eIF1A Δ NTT: background-corrected, relative to DMSO or lowest 1Ai concentration, replicate columns
T3 construct: His-bdSUMO (cleaved yes); made in house; host or cells: E. coli (BL-21)

[1] = eIF1A Δ CTT, from the titration data, read-out: IC50 (eIF1A Δ CTT titration block)
[2] = summary table, fluorescence binding assay, read-out: IC50 concentration (µM), CTT truncation
[3] = eIF1A Δ NTT, from the titration data, read-out: IC50 (eIF1A Δ NTT titration block)
[4] = summary table, fluorescence binding assay, read-out: IC50 concentration (µM), NTT truncation

T1 sequence (P47813 1-114 limits assumed): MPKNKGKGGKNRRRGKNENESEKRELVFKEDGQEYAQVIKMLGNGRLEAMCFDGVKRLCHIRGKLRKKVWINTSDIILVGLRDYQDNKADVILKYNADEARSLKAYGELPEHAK
T3 sequence (P47813 31-144 limits assumed): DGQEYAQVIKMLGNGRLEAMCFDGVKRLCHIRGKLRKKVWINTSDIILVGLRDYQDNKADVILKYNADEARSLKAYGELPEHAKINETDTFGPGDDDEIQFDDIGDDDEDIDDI
T2 sequence (P47813 whole entry, one chain of several): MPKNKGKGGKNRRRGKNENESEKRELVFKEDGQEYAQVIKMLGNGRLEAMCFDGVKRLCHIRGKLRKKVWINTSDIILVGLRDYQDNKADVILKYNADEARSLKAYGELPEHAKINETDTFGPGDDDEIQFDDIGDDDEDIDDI

Structure (SMILES) | GFP reporter ratio nsp1/gfp, avg (NSP1) | GFP reporter ratio nsp1/gfp, rep 1 (NSP1) | gfp signal, mean of duplicate wells (NSP1) | nsp1 signal, mean of duplicate wells (NSP1) | ratio (nsp1/gfp) (NSP1) | fluorescence ratio, eIF1A Δ CTT (eIF1A without CTT; 1Ai conc. 0.25 uM) | fluorescence ratio, eIF1A Δ CTT (eIF1A without CTT; 1Ai conc. 0.5 uM) | fluorescence ratio, eIF1A Δ CTT (eIF1A without CTT; 1Ai conc. 1 uM) | fluorescence ratio, eIF1A Δ CTT (eIF1A without CTT; 1Ai conc. 2 uM) | fluorescence ratio, eIF1A Δ CTT (eIF1A without CTT; 1Ai conc. 4 uM) | fluorescence ratio, eIF1A Δ CTT (eIF1A without CTT; 1Ai conc. 8 uM) | fluorescence ratio, eIF1A Δ CTT (eIF1A without CTT; 1Ai conc. 16 uM) | fluorescence ratio, eIF1A Δ CTT (eIF1A without CTT; 1Ai conc. 32 uM) | fluorescence ratio, eIF1A Δ CTT (eIF1A without CTT; 1Ai conc. 64 uM) | fluorescence ratio, eIF1A Δ CTT (eIF1A without CTT; 1Ai conc. 256 uM) | IC50 (eIF1A without CTT; [1]) [µM] | IC50 (eIF1A without CTT; [2]) [µM] | IC50 (eIF1A-RPS10 interaction) [µM] | fluorescence ratio, eIF1A Δ NTT (eIF1A without NTT; 1Ai conc. 0.25 uM) | fluorescence ratio, eIF1A Δ NTT (eIF1A without NTT; 1Ai conc. 0.5 uM) | other results
CCOc1cc(C(=O)Nc2ccc(Cl)c(-c3nc4ccccc4[nH]3)c2)cc(OCC)c1OCC [1Ai-5677] | 0.572 | 0.572 | 1615.5 | 924 | 0.572 | 0.9518 and 1.125 | 0.9965 and 1.042 | 1.031 and 1.16 | 1.066 and 1.079 | 1.073 and 1.131 | 1.007 and 1.089 | 1.119 and 1.152 | 1.196 and 1.27 | 1.276 and 1.31 | 1.365 and 1.556 | 79.9 | 79.9 | 15 | 1 | 1 and 0.9156 | binding to NTT-truncated eIF1A (eIF1A without NTT): significantly decreased; fluorescence ratio, eIF1A Δ NTT (eIF1A without NTT; 1Ai conc. 1 uM): 1.054 and 0.8819; fluorescence ratio, eIF1A Δ NTT (eIF1A without NTT; 1Ai conc. 2 uM): 0.997 and 1.025; fluorescence ratio, eIF1A Δ NTT (eIF1A without NTT; 1Ai conc. 4 uM): 0.8973 and 1.017; fluorescence ratio, eIF1A Δ NTT (eIF1A without NTT; 1Ai conc. 8 uM): 0.994 and 0.865; fluorescence ratio, eIF1A Δ NTT (eIF1A without NTT; 1Ai conc. 16 uM): 1.091 and 0.9072; fluorescence ratio, eIF1A Δ NTT (eIF1A without NTT; 1Ai conc. 32 uM): 1.205 and 0.9494; fluorescence ratio, eIF1A Δ NTT (eIF1A without NTT; 1Ai conc. 64 uM): 1.39 and 0.8945; fluorescence ratio, eIF1A Δ NTT (eIF1A without NTT; 1Ai conc. 256 uM): 1.882 and 1.228; IC50 (eIF1A without NTT; [3]): 109 µM; IC50 (eIF1A without NTT; [4]): 109 µM
Cc1cc(-n2c(C)cc(-c3csc(N)n3)c2C)no1 [1Ai-6464] | 0.5623 | 0.5623 | 2104 | 1183 | 0.562 | 0.827 and 0.948 | 0.8882 and 1.055 | 0.8515 and 1.0065 | 0.8637 and 0.9317 | 0.8683 and 0.9724 | 0.6692 and 0.7821 | 0.7305 and 0.6862 | 0.608 and 0.5594 | 0.4364 and 0.4829 | 0.1547 and 0.1772 | 35.4 | 35.4 | 13 | 0.925 and 0.9309 | 1.072 and 0.9557 | fluorescence ratio, eIF1A Δ NTT (eIF1A without NTT; 1Ai conc. 1 uM): 1.214 and 0.9982; fluorescence ratio, eIF1A Δ NTT (eIF1A without NTT; 1Ai conc. 2 uM): 1.067 and 1.004; fluorescence ratio, eIF1A Δ NTT (eIF1A without NTT; 1Ai conc. 4 uM): 1.128 and 0.9504; fluorescence ratio, eIF1A Δ NTT (eIF1A without NTT; 1Ai conc. 8 uM): 1.103 and 0.7642; fluorescence ratio, eIF1A Δ NTT (eIF1A without NTT; 1Ai conc. 16 uM): 0.8611 and 0.7181; fluorescence ratio, eIF1A Δ NTT (eIF1A without NTT; 1Ai conc. 32 uM): 0.7861 and 0.6206; fluorescence ratio, eIF1A Δ NTT (eIF1A without NTT; 1Ai conc. 64 uM): 0.6389 and 0.5018; fluorescence ratio, eIF1A Δ NTT (eIF1A without NTT; 1Ai conc. 256 uM): 0.4333 and 0.2642; IC50 (eIF1A without NTT; [3]): 37 µM; IC50 (eIF1A without NTT; [4]): 37 µM
